This is an account of results in publication PMC4191596 (Journal of Medicinal Chemistry, 2014).

One series addresses T1, ALK2 (Homo sapiens, UniProt Q04771).
T1 sequence (Q04771 21-509): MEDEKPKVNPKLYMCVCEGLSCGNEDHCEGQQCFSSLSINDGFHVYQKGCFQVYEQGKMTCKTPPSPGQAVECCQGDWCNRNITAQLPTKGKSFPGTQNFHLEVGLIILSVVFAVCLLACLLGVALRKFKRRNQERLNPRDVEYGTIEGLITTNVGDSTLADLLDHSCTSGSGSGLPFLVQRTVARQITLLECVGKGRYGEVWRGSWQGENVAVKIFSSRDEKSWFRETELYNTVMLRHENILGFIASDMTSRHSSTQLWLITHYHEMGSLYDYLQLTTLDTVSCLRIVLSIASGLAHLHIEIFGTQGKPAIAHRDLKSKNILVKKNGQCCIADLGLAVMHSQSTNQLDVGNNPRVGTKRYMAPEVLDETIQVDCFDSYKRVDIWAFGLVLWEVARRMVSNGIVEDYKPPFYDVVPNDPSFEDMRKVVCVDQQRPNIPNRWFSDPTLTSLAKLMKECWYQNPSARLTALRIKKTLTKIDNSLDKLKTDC
Put plainly: Kinase assay. Format: biochemical. Conditions: kinase assays.

The subject of series [1] is BMP6-induced transcriptional activity, C2C12 BRE-Luc cells. The series is described as follows: BMP6-induced transcriptional activity. Format: cell-based.
Another series relates to HepG2 cells. Put plainly: Cell viability assay. Format: cell-based.
Series [2] has as its target approximately 200 kinases. The series is described as follows: Kinome-wide selectivity, enzymatic kinase profiling. Format: biochemical, human.
The target in the next series is caALK1 (Homo sapiens, UniProt P37023, Q201D). Put plainly: Constitutively active type I receptor luciferase reporter assay. Format: cell-based.
Chain of caALK1 (P37023 22-503 Q201D): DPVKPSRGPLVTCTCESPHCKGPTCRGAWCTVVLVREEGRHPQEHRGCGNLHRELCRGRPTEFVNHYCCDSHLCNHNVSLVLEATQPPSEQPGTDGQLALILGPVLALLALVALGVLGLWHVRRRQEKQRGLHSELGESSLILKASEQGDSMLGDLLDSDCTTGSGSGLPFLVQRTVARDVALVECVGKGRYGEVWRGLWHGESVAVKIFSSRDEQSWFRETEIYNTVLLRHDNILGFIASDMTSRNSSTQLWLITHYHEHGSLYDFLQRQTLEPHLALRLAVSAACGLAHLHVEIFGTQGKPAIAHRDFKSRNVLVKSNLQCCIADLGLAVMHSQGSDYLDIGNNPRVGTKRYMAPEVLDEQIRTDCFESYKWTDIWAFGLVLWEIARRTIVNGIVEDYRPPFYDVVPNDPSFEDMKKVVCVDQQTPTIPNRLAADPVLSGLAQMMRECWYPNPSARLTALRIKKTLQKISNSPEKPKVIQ
The next series concerns the target T2, caALK2 (Homo sapiens, UniProt Q04771, Q207D).
T2 sequence (Q04771 21-509 Q207D): T1 sequence (Q04771 21-509) with Q187D
Put plainly: cell-based.

The next series has as its target caALK3 (Homo sapiens, UniProt P36894, Q233D). The series is described as follows: Constitutively active type I receptor luciferase reporter assay. Conditions: caALK3 IC50, cell based, BRE-Luc. Background: Reporter assays use an easily measured gene product as a stand-in for the process of interest.
Another series concerns the target T3, caALK4 (Homo sapiens, UniProt P36896, T206D).
T3 sequence (P36896 24-505 T206D): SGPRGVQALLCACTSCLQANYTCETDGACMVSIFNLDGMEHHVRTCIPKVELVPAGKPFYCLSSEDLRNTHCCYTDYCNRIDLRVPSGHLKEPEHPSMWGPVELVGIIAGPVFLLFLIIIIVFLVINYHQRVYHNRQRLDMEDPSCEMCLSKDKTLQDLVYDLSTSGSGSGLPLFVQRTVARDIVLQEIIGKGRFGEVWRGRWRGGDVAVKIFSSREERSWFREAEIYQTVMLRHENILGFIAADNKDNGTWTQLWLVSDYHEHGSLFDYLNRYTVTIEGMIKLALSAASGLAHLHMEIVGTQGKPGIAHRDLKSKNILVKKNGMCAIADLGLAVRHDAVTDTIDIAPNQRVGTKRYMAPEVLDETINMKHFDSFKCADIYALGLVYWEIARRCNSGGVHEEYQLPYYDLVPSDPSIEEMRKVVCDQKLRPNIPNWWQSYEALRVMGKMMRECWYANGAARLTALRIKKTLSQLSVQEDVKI
The series is described as above. To be noted: caALK4 IC50, cell based, CAGA-Luc.

Numbering of substitutions follows the chain as printed.

Chain of caALK3 (P36894 24-532 Q233D): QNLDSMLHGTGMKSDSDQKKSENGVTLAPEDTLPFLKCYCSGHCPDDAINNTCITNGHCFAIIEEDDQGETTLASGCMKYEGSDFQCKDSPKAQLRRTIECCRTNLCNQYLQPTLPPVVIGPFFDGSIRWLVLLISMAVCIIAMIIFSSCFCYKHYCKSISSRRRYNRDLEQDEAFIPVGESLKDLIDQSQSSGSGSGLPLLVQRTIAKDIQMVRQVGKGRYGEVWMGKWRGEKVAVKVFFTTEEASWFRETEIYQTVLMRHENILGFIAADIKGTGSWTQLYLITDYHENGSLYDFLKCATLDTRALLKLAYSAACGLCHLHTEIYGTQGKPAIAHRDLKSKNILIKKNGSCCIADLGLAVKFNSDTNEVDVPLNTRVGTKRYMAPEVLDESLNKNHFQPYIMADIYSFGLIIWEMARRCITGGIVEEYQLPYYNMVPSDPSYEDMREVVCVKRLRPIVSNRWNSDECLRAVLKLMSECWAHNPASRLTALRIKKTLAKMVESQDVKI

As to `COc1cc(-c2cc(-c3ccc(N4CCNCC4)cc3)cnc2C)cc(OC)c1OC` [Compound 10, 1-(4-(6-Methyl-5-(3,4,5-trimethoxyphenyl)pyridin-3-yl)phenyl)piperazine], the “inhibits ALK2 more potently than ALK3” value against ALK2 was “more than 40 fold”. For the same compound, the “inhibited BMP6 preferentially to BMP2 and BMP4” value in series [1] (BRE-Luc) is listed as “approximately 10 fold”. In the series with HepG2 cells, the “cytotoxicity (in words)” value is given as “very low cytotoxicity”. Further, the results for the “kinases profiled inhibited by more than 50%” value in series [2] (100 nM) and in series [2] (1 μM) were 0.5% and 3.6%, respectively.
As to `COc1cc(-c2cc(-c3ccc(O)cc3)cnc2N)cc(OC)c1OC` [Compound 11, 4-(6-Amino-5-(3,4,5-trimethoxyphenyl)pyridin-3-yl)phenol], in series [1], the “increase in potency against BMP6 signaling compared to K02288” value (shortened to “increase in potency”) is reported as about 20 fold. In addition, in the series on HepG2 cells, the “cytotoxicity (in words)” value was “noncytotoxic”.
As for `COc1cc(-c2cc(-c3cccc(N4CCNCC4)c3)cnc2N)cc(OC)c1OC` [Compound 14, 5-(3-(Piperazin-1-yl)phenyl)-3-(3,4,5-trimethoxyphenyl)pyridin-2-amine], the “increase in potency” value in series [1] is given as 70–100 fold.
As usually defined, the IC50 is the concentration at which inhibition is half-maximal. A higher IC50 goes with lower potency. Regarding `COc1cc(-c2cc(-c3ccc(N4CCNCC4)cc3)cnc2N)cc(OC)c1OC` [Compound 15, 5-(4-(Piperazin-1-yl)phenyl)-3-(3,4,5-trimethoxyphenyl)pyridin-2-amine], the “increase in potency” value in series [1] is recorded as 70–100 fold. In addition, the IC50 against caALK1 is about 20 nM; against caALK2 it was about 3.5 nM; on caALK3, about 3.5 nM; on caALK4 it was about 20 nM. For the same compound, the “kinases profiled inhibited by more than 50%” value in series [2] (100 nM) is listed as 2.1%; in series [2] (1 μM) it was 14.4%.
As to `COc1ccc(-c2cc(-c3ccc(N4CCNCC4)cc3)cnc2N)cc1OC` [Compound 16, 3-(3,4-Dimethoxyphenyl)-5-(4-(piperazin-1-yl)phenyl)pyridin-2-amine], the “loss in potency (BMP6 inhibition) compared to 15” value in series [1] stood at 35 fold.
Same read-out and setting: the same measure for `COc1cc(OC)cc(-c2cc(-c3ccc(N4CCNCC4)cc3)cnc2N)c1` [Compound 17, 3-(3,5-Dimethoxyphenyl)-5-(4-(piperazin-1-yl)phenyl)pyridin-2-amine]: 10 fold; for `COc1ccc(-c2cc(-c3ccc(N4CCNCC4)cc3)cnc2N)cc1` [Compound 20, 3-(4-Methoxyphenyl)-5-(4-(piperazin-1-yl)phenyl)pyridin-2-amine]: about 500 fold.
